# According to patent US10829499B2, “Tetracyclic heterocycle compounds useful as HIV integrase inhibitors” (MERCK SHARP & DOHME CORP., priority 2016, dated 2020):
# Read-outs that look alike come from different tables or passages of the source.
# System: HIV-1 (NL4-3 strain)
# Assay: Assay for Inhibition of HIV Replication (kinetic assay, MT4-gag-GFP reporter cell line; VIKING)
# Format: cell-based
# Description: This assay is a kinetic assay that employs a reporter cell line (MT4-gag-GFP) to quantify the number of new cells infected in each round of replication.
# MT4-GFP cells (250,000 cells/ml) were bulk-infected with HIV-1 (NL4-3 strain) at low multiplicity of infection (MOI) in RPMI cell culture medium+10% FBS for 24 hours. Cells were then washed once in RPMI cell culture medium+10% FBS and resuspended in RPMI cell culture medium+0% or 10% or 100% normal human serum (NHS). Test compounds were serial-diluted in DMSO on an ECHO® liquid handler. The infected MT4-GFP cells were added to a 384-well poly-D-lysine coated black plate with clear bottom in which the diluted test compounds were placed. The cells were seeded at 8,000 cells per well and the final DMSO concentration was 0.4%. The infected cells (Green GFP cells) were quantified at both 24 and 48 hours post incubation using Acumen eX3. Viral reproductive ratio (R0) was determined using the number of infected cells at 48 hours divided by the number of infected cells at 24 hours. Percent viral growth inhibition was calculated by [1-(R-Rtripledrug),/(RDMSO-Rtripledrug)]*100. Compound potency IP or IC50 was determined by a 4-parameter dose response curve analysis. In vitro potency in the cell-based assay in the absence of normal human serum (NHS) and the presence of 100% NHS.
# [1] = MT4-GFP cells infected with HIV-1 NL4-3, 0% normal human serum (NHS), read-out: VIKING IP50 (nM) with 0% NHS
# [2] = MT4-GFP cells infected with HIV-1 NL4-3, 100% normal human serum (NHS), read-out: VIKING IP50 (nM) with 100% NHS
# [3] = Human immunodeficiency virus 1, NL43, MT4-GFP cells infected with HIV-1 NL4-3, 0% normal human serum (NHS), read-out: VIKING IP50 (nM) with 0% NHS
# [4] = Human immunodeficiency virus 1, NL43, MT4-GFP cells infected with HIV-1 NL4-3, 100% normal human serum (NHS), read-out: VIKING IP50 (nM) with 100% NHS
Structure (SMILES),IC50 [1] [nM],IC50 [2] [nM],IC50 [3] [nM],IC50 [4] [nM]
"O=C(NCc1ccc(F)cc1)c1c2n3c(c(O)c1=O)C(=O)N1CCCOC1C3CC2 (single isomer, unassigned) [Compound 54]",0.654,904,,
"O=C(NCc1ccc(F)cc1F)c1c2n3c(c(O)c1=O)C(=O)N1CCCOC1C3CC2 (single isomer, unassigned) [Compound 55]",,39.5,1.03,
"O=C(NCc1ccc(F)cc1F)c1c2n3c(c(O)c1=O)C(=O)N1CCCOC1C3CC2 (single isomer, unassigned) [Compound 56]",0.701,1800,,
"O=C(NCc1ccc(F)cc1F)c1c2n3c(c(O)c1=O)C(=O)N1CCCOC1C3CC2 (single isomer, unassigned) [Compound 57]",0.919,871,,
"O=C(NCc1ccc(F)cc1F)c1c2n3c(c(O)c1=O)C(=O)N1CCCOC1C3CC2 (single isomer, unassigned) [Compound 58]",0.845,1520,,
"C[C@H]1CCOC2C3CCc4c(C(=O)NCc5ccc(F)cc5F)c(=O)c(O)c(n43)C(=O)N21 (single isomer, unassigned) [Compound 61]",22.1,,,8000
"C[C@H]1CCOC2C3CCc4c(C(=O)NCc5ccc(F)cc5F)c(=O)c(O)c(n43)C(=O)N21 (single isomer, unassigned) [Compound 62]",0.83,528,,
"C[C@H]1CCOC2C3CCc4c(C(=O)NCc5ccc(F)cc5F)c(=O)c(O)c(n43)C(=O)N21 (single isomer, unassigned) [Compound 63]",3.09,127,,
"O=C(NCc1cccc(Cl)c1F)c1c2n3c(c(O)c1=O)C(=O)N1CCCCOC1C3CC2 (single isomer, unassigned) [Compound 65]",0.939,6680,,
"O=C(NCc1cccc(Cl)c1F)c1c2n3c(c(O)c1=O)C(=O)N1CCCCOC1C3CC2 (single isomer, unassigned) [Compound 66]",1.48,834,,
"O=C(NCc1cccc(Cl)c1F)c1c2n3c(c(O)c1=O)C(=O)N1CCCCOC1C3CC2 (single isomer, unassigned) [Compound 67]",0.577,1470,,
"O=C(NCc1ccc(F)cc1F)c1c2n3c(c(O)c1=O)C(=O)N1CCCCOC1C3CC2 (single isomer, unassigned) [Compound 69]",,349,1.36,
"O=C(NCc1ccc(F)cc1F)c1c2n3c(c(O)c1=O)C(=O)N1CCCCOC1C3CC2 (single isomer, unassigned) [Compound 70]",1.12,3920,,
"O=C(NCc1ccc(F)cc1F)c1c2n3c(c(O)c1=O)C(=O)N1CCCCOC1C3CC2 (single isomer, unassigned) [Compound 71]",1.25,30.7,,
"COC1CC2C3OCCN3C(=O)c3c(O)c(=O)c(C(=O)NCc4ccc(F)cc4F)c1n32 (single isomer, unassigned) [Compound 73]",0.679,49.4,,
"COC1CC2C3OCCN3C(=O)c3c(O)c(=O)c(C(=O)NCc4ccc(F)cc4F)c1n32 (single isomer, unassigned) [Compound 74]",2.19,181,,
"COC1CC2C3OCCN3C(=O)c3c(O)c(=O)c(C(=O)NCc4ccc(F)cc4F)c1n32 (single isomer, unassigned) [Compound 75]",4.99,6180,,
"COC1CC2C3OCCN3C(=O)c3c(O)c(=O)c(C(=O)NCc4ccc(F)cc4F)c1n32 (single isomer, unassigned) [Compound 76]",1.01,17.8,,
"COC1CC2C3OCCN3C(=O)c3c(O)c(=O)c(C(=O)NCc4ccc(F)cc4F)c1n32 (single isomer, unassigned) [Compound 77]",1.56,2160,,
"COC1CC2C3OCCN3C(=O)c3c(O)c(=O)c(C(=O)NCc4ccc(F)cc4F)c1n32 (single isomer, unassigned) [Compound 78]",2.12,534,,

Structure (SMILES),IC50 [1] [nM],IC50 [2] [nM],IC50 [3] [nM],IC50 [4] [nM]
"COC1CC2C3OCCN3C(=O)c3c(O)c(=O)c(C(=O)NCc4ccc(F)cc4F)c1n32 (single isomer, unassigned) [Compound 79]",1.79,135,,
"CN1CCCN2C(=O)c3c(O)c(=O)c(C(=O)NCc4ccc(F)cc4F)c4n3C(CC4)C12 (single isomer, unassigned) [Compound 81]",,24.2,1.15,
"CN1CCCN2C(=O)c3c(O)c(=O)c(C(=O)NCc4ccc(F)cc4F)c4n3C(CC4)C12 (single isomer, unassigned) [Compound 82]",1.17,550,,
"CN1CCCN2C(=O)c3c(O)c(=O)c(C(=O)NCc4ccc(F)cc4F)c4n3C(CC4)C12 (single isomer, unassigned) [Compound 83]",0.857,16.8,,
"CN1CCCN2C(=O)c3c(O)c(=O)c(C(=O)NCc4cccc(Cl)c4F)c4n3C(CC4)C12 (single isomer, unassigned) [Compound 84]",0.762,37.5,,
"CN1CCCN2C(=O)c3c(O)c(=O)c(C(=O)NCc4cccc(Cl)c4F)c4n3C(CC4)C12 (single isomer, unassigned) [Compound 85]",0.703,17.8,,
"CN1CCCN2C(=O)c3c(O)c(=O)c(C(=O)NCc4cccc(Cl)c4F)c4n3C(CC4)C12 (single isomer, unassigned) [Compound 86]",0.426,9.17,,
"CN1CCCN2C(=O)c3c(O)c(=O)c(C(=O)NCc4cccc(Cl)c4F)c4n3C(CC4)C12 (single isomer, unassigned) [Compound 87]",0.875,1000,,
C[C@@H]1COC2C3CCc4c(C(=O)NCc5ccc(F)cc5F)c(=O)c(O)c(n43)C(=O)N21 (stereo partly drawn) [Compound 32],,,0.671,101
C[C@@H]1COC2C3CCc4c(C(=O)NCc5cccc(Cl)c5F)c(=O)c(O)c(n43)C(=O)N21 (stereo partly drawn) [Compound 35],,,0.733,88.7
C[C@@H]1CN2C(=O)c3c(O)c(=O)c(C(=O)NCc4cccc(Cl)c4F)c4n3C(CC4)C2O1 (stereo partly drawn) [Compound 38],,,0.543,46.4
C[C@H]1CN2C(=O)c3c(O)c(=O)c(C(=O)NCc4cccc(Cl)c4F)c4n3C(CC4)C2O1 (stereo partly drawn) [Compound 42],,,1.38,1570
O=C(NCc1cccc(Cl)c1F)c1c2n3c(c(O)c1=O)C(=O)N1CCCO[C@H]1[C@H]3CC2 [Compound 47],,,2.39,2680
CN1CCCN2C(=O)c3c(O)c(=O)c(C(=O)NCc4ccc(F)cc4F)c4n3C(CC4)C12 (stereo not drawn) [Compound 80],,,0.662,13.8
C[C@H]1CNC2C3CCc4c(C(=O)NCc5cccc(Cl)c5F)c(=O)c(O)c(n43)C(=O)N21 (stereo partly drawn) [Compound 88],,,0.705,13.7
C[C@H]1CNC2C3CCc4c(C(=O)NCc5cccc(Cl)c5F)c(=O)c(O)c(n43)C(=O)N21 (stereo partly drawn) [Compound 89],0.709,120,,
C[C@H]1CNC2C3CCc4c(C(=O)NCc5cccc(Cl)c5F)c(=O)c(O)c(n43)C(=O)N21 (stereo partly drawn) [Compound 90],0.397,24.6,,
C[C@H]1CN2C(=O)c3c(O)c(=O)c(C(=O)NCc4cccc(Cl)c4F)c4n3C(CC4)C2N1 (stereo partly drawn) [Compound 91],1,464,,
C[C@H]1CN2C(=O)c3c(O)c(=O)c(C(=O)NCc4cccc(Cl)c4F)c4n3C(CC4)C2N1 (stereo partly drawn) [Compound 92],0.67,8.12,,
